Source: US8420670B2 (Abbott Laboratories, priority 2007, dated 2013)
Counter-ions that a name gives are not always drawn.

How the values were obtained:
[1] = molecular target: T1, human GlyT1c transporter (Homo sapiens, UniProt P48067); test: [3H]-(R)-NPTS radioligand binding assay using recombinant hGlyT1 expressing cell membranes; conditions: 0.5 nM [3H]-(R)-NPTS, apparent Ki via Cheng-Prusoff, read-out: [3H]-(R)-NPTS bindung Ki
T1 construct: expressed in transfected cells; host or cells: recombinant hGlyT1-expressing cells
T1 sequence (P48067 1-706): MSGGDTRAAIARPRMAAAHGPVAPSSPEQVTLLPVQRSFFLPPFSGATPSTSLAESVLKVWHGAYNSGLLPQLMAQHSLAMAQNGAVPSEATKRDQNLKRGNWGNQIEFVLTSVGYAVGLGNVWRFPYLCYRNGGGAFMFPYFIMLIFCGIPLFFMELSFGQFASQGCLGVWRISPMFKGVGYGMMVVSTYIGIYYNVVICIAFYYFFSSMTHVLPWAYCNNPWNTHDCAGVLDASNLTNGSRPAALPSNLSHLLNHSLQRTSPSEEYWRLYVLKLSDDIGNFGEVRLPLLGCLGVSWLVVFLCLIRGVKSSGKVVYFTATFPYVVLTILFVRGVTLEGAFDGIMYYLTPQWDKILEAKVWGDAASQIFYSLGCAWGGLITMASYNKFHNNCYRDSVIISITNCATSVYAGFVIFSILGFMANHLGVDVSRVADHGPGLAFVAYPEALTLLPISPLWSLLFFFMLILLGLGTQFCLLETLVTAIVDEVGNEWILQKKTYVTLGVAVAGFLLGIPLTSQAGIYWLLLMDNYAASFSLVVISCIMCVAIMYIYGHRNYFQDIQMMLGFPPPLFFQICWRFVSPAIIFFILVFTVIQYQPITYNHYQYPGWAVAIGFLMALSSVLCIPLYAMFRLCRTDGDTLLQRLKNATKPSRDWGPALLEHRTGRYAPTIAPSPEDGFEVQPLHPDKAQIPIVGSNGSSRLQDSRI
Description: 2. [^3H]-(R)-NPTS Radioligand Binding Assays using Recombinant hGlyT1 Expressing Cell Membranes:
Radioligand binding to human GlyT1c transporter-expressing membranes was measured in duplicate in a total volume of 200 μl in 96-well plates. To 100 μl of membrane suspension (yielding a final membrane protein concentration of 50 μg/ml) in assay buffer (120 mM NaCl, 2 mM KCl, 10 mM Hepes, 1 mM MgCl2, 1 mM CaCl2, pH 7.5) […] of [^3H]-(R)NPTS (0.5 nM final) were added in assay buffer. For competition experiments 10 μl of buffer or unlabeled compound solution obtained from dilution series of test compounds in DMSO followed. An intermediate 1:10 dilution in assay buffer yielded a final DMSO concentration of 1%. Non-specific binding was determined in the presence of 10 μM Org24598 (or its racemate Org24461) for [^3H]-(R)-NPTS. After incubation at room temperature for 1 h, the incubation mixture was harvested (Tomtec Mach III U Harvester) through 96-well GF/B filter plates (PerkinElmer), presoaked for 1 h with 40 μl per well of 0.1% polyethylene-imine (PEI). After washing twice with ice-cold 50 mM Tris-HCl pH 7.4 buffer, drying and addition of 35 μl scintillator (BetaplateScint, PerkinElmer) per well followed. The radioactivity was determined by liquid scintillation spectrometry in a MicroBeta (PerkinElmer) plate counter.
Data analysis: For binding of [^3H]-(R)-NPTS to cell membranes, the calculation of Kd and Bmax values from the saturation binding assays and the IC50 values from the displacement binding was performed by iterative non-linear regression analysis adapted from the ‘Ligand’ program (Munson and Rodbard, 1980). Radioligand displacement curves in absence or in presence of increasing concentrations of tested compounds were fitted using a one-site fit and the apparent Ki values were calculated from the IC50 values using the Cheng-Prusoff equation (Cheng and Prusoff 1973).

[2] = molecular target: T2, Human GlyT1c (Homo sapiens, UniProt P48067); test: Glycine uptake in recombinant hGlyT1 expressing cells; format: cell-based; conditions: hGlyT1c_5_CHO cells; [3H]-glycine uptake, 60-120 min
T2 construct: expressed in transfected cells; host or cells: CHO (hGlyT1c_5_CHO clone)
T2 sequence (P48067 1-706): T1 sequence (P48067 1-706)
Description: 1. Glycine Uptake in Recombinant hGlyT1 Expressing Cells:
Human GlyT1c expressing recombinant hGlyT1c—5_CHO cells were plated at 20,000 cells per well in 96 well Cytostar-T scintillation microplates (Amersham Biosciences) and cultured to sub-confluency for 24 h. For glycine uptake assays the culture medium was aspirated and the cells were washed once with 100 μl HBSS (Gibco BRL, #14025-050) with 5 mM L-Alanine (Merck #1007). 80 μl HBSS buffer were added, followed by 10 μl inhibitor or vehicle (10% DMSO) and 10 μl [^3H]-glycine (TRK71, Amersham Biosciences) to a final concentration of […] for initiation of glycine uptake. The plates were placed in a Wallac Microbeta (PerkinElmer) and continuously counted by solid phase scintillation spectrometry during up to 3 hours. Nonspecific uptake was determined in the presence of 10 μM Org24598. IC50 calculations were made by four-parametric logistic nonlinear regression analysis (GraphPad Prism) using determinations within the range of linear increase of [^3H]-glycine incorporation between 60 and 120 min.

For `Cc1cc(NCc2ccc(Cl)c(Cl)c2)c2cccc(OCCNS(=O)(=O)c3ccc4ccccc4c3)c2n1` [Example 28, Naphthyl-2-sulfonic {2-[4-(3,4-dichlorobenzylamino)-2-methylquinolin-8-yloxy]-ethyl}-amide], the Ki [1] was ≤ 100 nM and the IC50 [2] was ≤ 1000 nM.

In the case of `Cc1cc(NCc2ccc(Cl)c(Cl)c2)c2cccc(OCCNS(=O)(=O)C(F)(F)F)c2n1` [Example 29, N-{2-[4-(3,4-Dichlorobenzylamino)-2-methylquinolin-8-yloxy]-ethyl}-C,C,C-trifluoromethanesulfonamide], the Ki [1] is reported as ≤ 100 nM and the IC50 [2] is reported as ≤ 100 nM.

In the case of `Cc1cc(NCc2ccc(Cl)c(Cl)c2)c2cccc(OCCNS(=O)(=O)c3cccnc3)c2n1` [Example 30, Pyridine-3-sulfonic {2-[4-(3,4-dichlorobenzylamino)-2-methylquinolin-8-yloxy]-ethyl}amide], the Ki [1] is reported as ≤ 10 nM and the IC50 [2] is reported as ≤ 100 nM.

For `Cc1cc(NCc2ccc(Cl)c(Cl)c2)c2cccc(OCCNS(=O)(=O)CC(C)C)c2n1` [Example 31, 2-Methylpropane-1-sulfonic {2-[4-(3,4-dichlorobenzylamino)-2-methylquinolin-8-yloxy]-ethyl}-amide], the Ki [1] was ≤ 10 nM and the IC50 [2] was ≤ 100 nM.

In the case of `Cc1cc(NCc2ccc(Cl)c(Cl)c2)c2cccc(OCCNS(=O)(=O)Cc3ccccc3)c2n1` [Example 32, N-{2-[4-(3,4-Dichloro-benzylamino)-2-methylquinolin-8-yloxy]-ethyl}-C-phenyl-methanesulfonamide], the Ki [1] is reported as ≤ 100 nM and the IC50 [2] is reported as ≤ 1000 nM.

With `C=CCN1CCCC[C@H]1[C@@H](Nc1cc(C)nc2c(OCCNC(=O)OC(C)(C)C)cccc12)c1ccccc1` [Example 33, [2-(4-{[(S)—((S)-1-Allyl-piperidin-2-yl)-phenylmethyl]-amino}-2-methylquinolin-8-yloxy)ethyl]-carbamate tert-butyl ester] the Ki [1] was ≤ 10000 nM and the IC50 [2] was ≤ 10000 nM.

For `C=CCN1CCCC[C@H]1[C@@H](Nc1cc(C)nc2c(OCCN)cccc12)c1ccccc1` [Example 34, [(S)—((S)-1-Allylpiperidin-2-yl)-phenylmethyl]-[8-(2-aminoethoxy)-2-methylquinolin-4-yl]-amine], the Ki [1] was ≤ 10000 nM and the IC50 [2] was ≤ 100000 nM.

With `C=CCN1CCCC[C@H]1[C@@H](Nc1cc(C)nc2c(OCCNS(C)(=O)=O)cccc12)c1ccccc1` [Example 35, N-[2-(4-{[(S)—((S)-1-Allylpiperidin-2-yl)-phenylmethyl]-amino}-2-methylquinolin-8-yloxy)ethyl]methanesulfonamide] the Ki [1] was ≤ 10000 nM and the IC50 [2] was ≤ 10000 nM.

With `Cc1cc(NCc2ccc(Cl)cc2Cl)c2cccc(OCCN)c2n1` [Example 36, [8-(2-Aminoethoxy)-2-methylquinolin-4-yl]-(2,4-dichlorobenzyl)-amine] the Ki [1] was ≤ 100 nM and the IC50 [2] was ≤ 10000 nM.

`Cc1cc(N[C@@H](c2ccccc2)[C@@H]2CCCCN2)c2cccc(OCCNS(C)(=O)=O)c2n1` [Example 37, N-(2-{2-Methyl-4-[((S)-phenyl-(S)-piperidin-2-yl-methyl)-amino]-quinolin-8-yloxy}-ethyl)methanesulfonamide dihydrochloride] was tested, and the Ki [1] was ≤ 100 nM and the IC50 [2] was ≤ 1000 nM.

With `Cc1cc(NCc2ccc(Cl)cc2Cl)c2cccc(OCCNS(C)(=O)=O)c2n1` [Example 38, N-{2-[4-(2,4-Dichlorobenzylamino)-2-methylquinolin-8-yloxy]-ethyl}-methanesulfonamide] the Ki [1] was ≤ 100 nM and the IC50 [2] was ≤ 1000 nM.

`Cc1cc(NCc2ccc(Cl)cc2Cl)c2cccc(OCCNS(=O)(=O)CC(C)C)c2n1` [Example 39, 2-Methylpropane-1-sulfonic {2-[4-(2,4-dichlorobenzylamino)-2-methylquinolin-8-yloxy]-ethyl}-amide] was tested, and the Ki [1] was ≤ 100 nM and the IC50 [2] was ≤ 1000 nM.

With `Cc1cc(N[C@@H](c2ccccc2)[C@@H]2CCCCN2)c2cccc(OCCNS(=O)(=O)c3cccnc3)c2n1` [Example 40, Pyridin-3-sulfonic (2-{2-methyl-4-[((S)-phenyl-(S)-piperidin-2-yl-methyl)-amino]-quinolin-8-yloxy}-ethyl)-amide dihydrochloride] the Ki [1] was ≤ 100 nM and the IC50 [2] was ≤ 10000 nM.
